Broadly, the IC50 is the concentration that gives 50% inhibition.

We go through one molecule from patent publication US10548883B2, “Benzotriazole-derived α and β-unsaturated amide compound used as TGF-β RI inhibitor” (GENFLEET THERAPEUTICS (SHANGHAI) INC., priority 2016, dated 2020).

For test [1], the system named is mouse breast cancer 4T1 cells. The test is described as follows: Tumor cell metastasis inhibition in BALB/c mouse orthotopic transplantation model of mouse breast cancer 4T1 cells. As to conditions: 75 mg/kg PO once a day × 32. Type of test: in vivo. As for the experimental part:
Fluorescently labeled mouse breast cancer 4T1-Luc cells were expanded in vitro. Before the cells were collected, the mice were anesthetized with intraperitoneal injection of sodium pentobarbital. After anesthetized mice were fixed, the abdominal skin was disinfected with 70% alcohol. 100 uL of phosphate buffer (containing 0.5×10^6 4T1-luc2 cells) was inoculated into the left side of the fourth pair of abdominal mammary fat pads in mice, and the incision was sutured to disinfect the skin. The animals are kept warm with a warm blanket, observed until they wake up and put back in their cages. 0.1 mg/kg buprenorphine for pain relief was subcutaneously injected 30 min before surgery and 6 hours after surgery.
On the third day after modeling, the animals were subjected to bioluminescence detection by infrared data imaging, randomly grouped according to the fluorescence values, and administered according to the following experimental protocol, see Table 5.
To observe the inhibitory effect of embodiment 1 on tumor growth and metastasis, the experimental endpoint was designed to be 30-35 days after administration, with reference to historical data of the model. At the end of the experiment, the in situ tumor and various organ tissues were dissected, the tumor was weighed, and the fluorescence intensity of each organ was detected by IVIS fluorescence. Growth inhibition of orthotopic tumors can be compared by the weight of the in situ tumor in the experimental endpoint, and the inhibition curve is generated from the tumor volume measurement data twice a week during the experiment. The inhibition of tumor metastasis was determined by the presence or absence of fluorescence detection of each organ and the analysis of relative fluorescence intensity.
At the end of the experiment, the tumor weight will be detected and the relative tumor growth rate T/C (%) will be calculated; the tumor volume is calculated as: V=0.5a×b^2, and a and b represent the long and short diameters of the tumor, respectively. At the same time, the lung, liver, spleen, kidney, intestine and left upper limb were stripped, and fluorescence was detected to determine whether there was metastasis and metastasis intensity and ratio.
The antitumor effect of the compound was evaluated by the tumor growth inhibition rate TGI (%) or the relative tumor growth rate T/C (%).
Calculation of TGI (%): TGI (%)=[(1−mean tumor volume at the end of administration of a treatment group−mean tumor volume at the start of administration of the treatment group))/(mean tumor volume at the end of treatment of the solvent control group−mean tumor volume at the start of administration of the solvent control group)]×100%.
Relative tumor growth rate T/C (%) calculation: T/C(%)=Tt(treatment group)/Ct(control group)×100%, Tt is the average tumor volume at a certain measurement, and Ct takes the same day data.
The experimental results were statistically analyzed using one-way ANOVA. If there is a significant difference in F values, multiple comparisons should be made after ANOVA analysis. All data in this experiment were analyzed using SPSS 17.0. A significant difference was considered at p<0.05.
At the end of the experiment, each organ tissue was peeled off, and fluorescence imaging and fluorescence intensity value recording were measured by IVIS for 40 sec exposure within 8 min. The fluorescence imaging results of the tested tissues of the 10 animals excised by the maximum and minimum values are shown in Table 6.
According to the experimental end point, the fluorescence intensity of each group of organs was normalized by the control group, and the relative fluorescence intensity ratio of each group of organs was obtained. The ratio reflects the level of metastatic intensity on the corresponding organs.

In another test the target is T1, TGF-βRI (Homo sapiens, UniProt P36897).
T1 sequence (P36897 34-503): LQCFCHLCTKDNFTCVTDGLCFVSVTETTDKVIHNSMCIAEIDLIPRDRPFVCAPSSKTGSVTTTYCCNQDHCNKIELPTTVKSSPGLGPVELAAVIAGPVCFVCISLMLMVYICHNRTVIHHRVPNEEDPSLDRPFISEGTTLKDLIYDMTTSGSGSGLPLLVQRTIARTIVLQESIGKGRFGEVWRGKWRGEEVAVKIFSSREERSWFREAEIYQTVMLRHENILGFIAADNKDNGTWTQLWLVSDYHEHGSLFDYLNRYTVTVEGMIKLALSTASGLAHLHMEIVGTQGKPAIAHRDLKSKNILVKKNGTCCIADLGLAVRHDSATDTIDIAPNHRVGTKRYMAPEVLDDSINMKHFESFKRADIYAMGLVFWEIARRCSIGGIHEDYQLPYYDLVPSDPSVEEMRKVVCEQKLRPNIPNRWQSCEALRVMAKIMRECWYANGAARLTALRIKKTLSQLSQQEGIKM
The test is described as follows: Test of inhibitory activity of TGFβ-RI in vitro. Type of test: biochemical. As to conditions: 10 μM ATP. As for the experimental part: i) Test compound: the IC50 was determined by diluting into 10 gradient points with each gradient by three-fold dilution and with a starting concentration of 5 μM.
ii) The IC50 of reference compound LDN193189 was determined by diluting into 10 gradient points with each gradient by three-fold dilution and with a starting concentration of 20 μM.
iii) The reaction system contains 10 μM ATP.
iv) Calculate the IC50 value by curve fitting when the percentage of enzyme activity (compared to the solvent group) is below 65% at the highest concentration of the sample.

The mark [2] stands for this setting: animals with metastasis/animals in group.
The mark [3] stands for this setting: average organ fluorescence relative to control group.

As for `Cc1cccc(-c2nn3c(c2-c2ccc4ncnn4c2/C=C/C(N)=O)CCC3)n1` [Embodiment 1], in test [1], the “Inhibition of metastasis of 4T1 (conclusion)” value is “significantly inhibited the metastasis of 4T1 in liver, spleen, kidney and intestine”. In test [1] (setting [2]), the “Metastasis rate, intestine” value came to 60%; the “Metastasis rate, kidney” value worked out at 20%; the “Metastasis rate, liver” value turned out to be 50%; the “Metastasis rate, lung” value came out at 100%. Moreover, in test [1] (setting [2]), the “Metastasis rate, spleen” value is recorded as 0% and the “Metastasis rate, upper limb” value is on record as 90%. In test [1] (setting [3]), the “Metastasis level, intestine” value stood at 1%; the “Metastasis level, kidney” value is recorded as 67%; the “Metastasis level, liver” value worked out at 10%; the “Metastasis level, lung” value is given as 9%. Further, in test [1] (setting [3]), the “Metastasis level, spleen” value was determined as 0% and the “Metastasis level, upper limb” value was 12%. In addition, on TGF-βRI, the half-maximal inhibitory concentration (IC50) lay in the range of 1 to 50 nM.
